Experimental data: PubChem BioAssay AID192 (DTP/NCI, 2004)
Where “and” joins values, the source holds several entries; their conditions need not be identical. Equal values may be shown once. Inconclusive results and toxic doses are left out. Numbered stars: 1 amine (or outer) side, 2 acyl side, 3 side chain; on linkers, the order of the positions; unused ones are H or OH. Square brackets hold non-standard residues; d marks the D form. Peptide text beside a SMILES is read from it. * marks the point of attachment. X6 = CCC(=O)CC1CC(C)CC(C(=O)[*:2])N1[*:1]; X5 = CCCCCCCCC(C)C(=O)*; Aib = CC(C)(N)C(=O)O; X7 = CC(CN(C)CCO)N*

System: BDF1 mice, B16 melanoma ip, median survival T/C
Assay: NCI In Vivo Anticancer Drug Screen. Data for tumor model B16 Melanoma (intraperitoneal) in B6D2F1 (BDF1) mice
Conditions: endpoint: median survival time, higher = longer survival
Method: The antitumor activity of compounds was measured in mice bearing transplantable tumors. Survival or tumor size were measured and the results are expressed as the measurement made in the treated group (T) divided by the measurement made in the vehicle treated control group (C). The tumor model used in this assay is B16 Melanoma (intraperitoneal) in B6D2F1 (BDF1) mice

[1] = dose: 1.25 mg/kg/injection, schedule: Q01DX009 (ip), vehicle: Klucel (hydroxypropylcellulose) (HPC)
[2] = dose: 12.5 mg/kg/injection, schedule: Q01DX009 (ip), vehicle: saline with Tween-80
[3] = dose: 25.0 mg/kg/injection, schedule: Q01DX009 (ip), vehicle: saline with Tween-80
[4] = dose: 50.0 mg/kg/injection, schedule: Q01DX009 (ip), vehicle: saline with Tween-80
[5] = dose: 100.0 mg/kg/injection, schedule: Q04DX003 (ip), vehicle: saline with Tween-80
[6] = dose: 200.0 mg/kg/injection, schedule: Q04DX003 (ip), vehicle: saline with Tween-80
[7] = dose: 30.0 mg/kg/injection, schedule: Q01DX001 (ip), vehicle: saline
[8] = dose: 100.0 mg/kg/injection, schedule: Q01DX009 (ip), vehicle: Klucel (hydroxypropylcellulose) (HPC)
[9] = dose: 6.25 mg/kg/injection, schedule: Q01DX009 (ip), vehicle: Klucel (hydroxypropylcellulose) (HPC)
[10] = dose: 12.5 mg/kg/injection, schedule: Q01DX009 (ip), vehicle: Klucel (hydroxypropylcellulose) (HPC)
[11] = dose: 25.0 mg/kg/injection, schedule: Q01DX009 (ip), vehicle: Klucel (hydroxypropylcellulose) (HPC)
[12] = dose: 50.0 mg/kg/injection, schedule: Q01DX009 (ip), vehicle: Klucel (hydroxypropylcellulose) (HPC)
[13] = dose: 50.0 mg/kg/injection, schedule: Q04DX003 (ip), vehicle: saline with Tween-80

CCCCCCCCC(C)C(=O)N1CCCC1C(=O)N1C(CC(=O)CC)CC(C)CC1C(=O)NC(C)C(=O)NC(C)(C)C(=O)NC(C)(C)C(=O)NC(C(=O)NC(C)C(=O)NC(C)(C)C(=O)NC(C)(C)C(=O)NC(C)CN(C)CCO)C(C)CC (configuration not stated) (X5-P[X6]A[Aib][Aib]IA[Aib][Aib]-X7; configuration not given here)
T/C (dose: 0.63 mg/kg/injection, schedule: Q01DX009 (ip), vehicle: Klucel (hydroxypropylcellulose) (HPC)): 102 % of control | T/C [1]: 90 % of control | T/C (dose: 2.5 mg/kg/injection, schedule: Q01DX009 (ip), vehicle: Klucel (hydroxypropylcellulose) (HPC)): 95 % of control

CC(=O)c1ccc2ccccc2c1O
T/C [2]: 107 % of control | T/C [3]: 93 % of control | T/C [4]: 106 % of control | T/C [5]: 100 % of control | T/C [6]: 110 % of control | T/C (dose: 400.0 mg/kg/injection, schedule: Q04DX003 (ip), vehicle: saline with Tween-80): 100 % of control

O=NN(CCF)C(=O)NC1CCS(=O)(=O)CC1
T/C (dose: 3.75 mg/kg/injection, schedule: Q01DX001 (ip), vehicle: saline): 173 % of control | T/C (dose: 7.5 mg/kg/injection, schedule: Q01DX001 (ip), vehicle: saline): 241 % of control | T/C (dose: 15.0 mg/kg/injection, schedule: Q01DX001 (ip), vehicle: saline): 260 % of control | T/C [7]: 256 % of control | T/C (dose: 60.0 mg/kg/injection, schedule: Q01DX001 (ip), vehicle: saline): 260 % of control

c1ccc2cc3c(cc2c1)Cn1c-3nc2ccccc21
T/C (dose: 178.0 mg/kg/injection, schedule: Q01DX009 (ip), vehicle: saline with Tween-80): 101 % of control | T/C (dose: 200.0 mg/kg/injection, schedule: Q01DX009 (ip), vehicle: saline): 124 % of control | T/C (dose: 266.0 mg/kg/injection, schedule: Q01DX009 (ip), vehicle: saline with Tween-80): 100 % of control | T/C (dose: 400.0 mg/kg/injection, schedule: Q01DX009 (ip), vehicle: saline with Tween-80): 90 % of control | T/C (dose: 400.0 mg/kg/injection, schedule: Q01DX009 (ip), vehicle: saline): 110 % of control

COC(=O)CNc1ccc(S(=O)(=O)c2ccc(N)cc2)cc1
T/C [8]: 103 % of control | T/C (dose: 200.0 mg/kg/injection, schedule: Q01DX009 (ip), vehicle: Klucel (hydroxypropylcellulose) (HPC)): 106 % of control | T/C (dose: 400.0 mg/kg/injection, schedule: Q01DX009 (ip), vehicle: Klucel (hydroxypropylcellulose) (HPC)): 120 % of control

C=Cc1c(C)c2cc3[nH]c(cc4nc(cc5nc(cc1[nH]2)C(C)=C5CCC(=O)O)C(CCC(=O)O)=C4C)c(C)c3C=C
T/C [9]: 97 % of control | T/C [10]: 104 % of control | T/C [11]: 104 % of control | T/C [12]: 101 % of control

CCN1Cc2ccc(O)cc2C1
T/C (dose: 25.0 mg/kg/injection, schedule: Q01DX009 (ip), vehicle: saline): 98 % of control | T/C (dose: 50.0 mg/kg/injection, schedule: Q01DX009 (ip), vehicle: saline): 100 % of control | T/C (dose: 100.0 mg/kg/injection, schedule: Q01DX009 (ip), vehicle: saline): 97 % of control

C=C1C(=O)O[C@@H]2[C@H](O)[C@@H](C)[C@@H]3C=CC(=O)[C@@]3(C)[C@@H](OC(=O)/C(C)=C/C)[C@H]12
T/C (dose: 1.5 mg/kg/injection, schedule: Q01DX009 (ip), vehicle: other): 101 % of control | T/C (dose: 1.5 mg/kg/injection, schedule: Q01DX009 (ip), vehicle: saline + alcohol): 92 % of control | T/C (dose: 3.0 mg/kg/injection, schedule: Q01DX009 (ip), vehicle: other): 98 % of control | T/C (dose: 3.0 mg/kg/injection, schedule: Q01DX009 (ip), vehicle: saline + alcohol): 96 % of control | T/C (dose: 6.0 mg/kg/injection, schedule: Q01DX009 (ip), vehicle: other): 99 % of control | T/C (dose: 6.0 mg/kg/injection, schedule: Q01DX009 (ip), vehicle: saline + alcohol): 96 % of control

CCC1OC(=O)CC(O)C(C)C(OC2OC(C)C(O)C(N(C)C)C2O)C(CC=O)CC(C)C(=O)/C=C/C2(C)OC2C1C (configuration not stated)
T/C [10]: 96 % of control | T/C [11]: 97 % of control | T/C [12]: 98 % of control | T/C [8]: 88 % of control

CCCCN(C)N=Nc1c(C(N)=O)n[nH]c1C
T/C [2]: 110 % of control | T/C [3]: 105 % of control | T/C [4]: 122 % of control | T/C [13]: 100 % of control | T/C [5]: 105 % of control | T/C [6]: 113 % of control

CCCCCCC(C)NCC(O)COc1cccc(C)c1 (configuration not stated)
T/C (dose: 3.12 mg/kg/injection, schedule: Q01DX009 (ip), vehicle: Klucel (hydroxypropylcellulose) (HPC)): 90 % of control | T/C [9]: 94 % of control | T/C [10]: 89 % of control

Cn1c2ccccc2c(=O)c2ccc(Cl)cc21
T/C [11]: 97 % of control | T/C [12]: 97 % of control | T/C [8]: 91 % of control

C1CC[N-]CC1.C1CC[N-]CC1.N#C[S-].N#C[S-].[Cu]
T/C (dose: 2.5 mg/kg/injection, schedule: Q04DX003 (ip), vehicle: saline with Tween-80): 110 % of control | T/C (dose: 5.0 mg/kg/injection, schedule: Q04DX003 (ip), vehicle: saline with Tween-80): 93 % of control | T/C (dose: 10.0 mg/kg/injection, schedule: Q04DX003 (ip), vehicle: saline with Tween-80): 93 % of control

ClC1=C(Cl)C(Cl)=C(Cl)C1=Cc1ccccc1
T/C (dose: 1.56 mg/kg/injection, schedule: Q01DX009 (ip), vehicle: saline with Tween-80): 97 % of control | T/C (dose: 3.13 mg/kg/injection, schedule: Q01DX009 (ip), vehicle: saline with Tween-80): 92 % of control | T/C (dose: 6.25 mg/kg/injection, schedule: Q01DX009 (ip), vehicle: saline with Tween-80): 102 % of control | T/C [2]: 111 % of control | T/C [3]: 95 % of control

CC1CN1C(=O)NCCCCCCNC(=O)N1CC1C (configuration not stated)
T/C [1]: 151 % of control | T/C (dose: 1.25 mg/kg/injection, schedule: Q01DX009 (ip), vehicle: saline): 152 % of control | T/C (dose: 2.5 mg/kg/injection, schedule: Q01DX009 (ip), vehicle: saline): 180 % of control | T/C (dose: 5.0 mg/kg/injection, schedule: Q01DX009 (ip), vehicle: Klucel (hydroxypropylcellulose) (HPC)): 158 % of control | T/C (dose: 5.0 mg/kg/injection, schedule: Q01DX009 (ip), vehicle: saline): 202 % of control

CC1(C)c2ccccc2C(C)(O)c2ccccc21
T/C [13]: 102 % of control | T/C [5]: 111 % of control | T/C [6]: 94 % of control

O=CC(NC(=O)N(CCCl)N=O)C(O)C(O)C(O)CO (configuration not stated)
T/C (dose: 1.3 mg/kg/injection, schedule: Q01DX009 (ip), vehicle: saline): 153 % of control | T/C (dose: 3.0 mg/kg/injection, schedule: Q01DX009 (ip), vehicle: saline): 101 % of control and 201 % of control | T/C (dose: 4.0 mg/kg/injection, schedule: Q01DX009 (ip), vehicle: saline): 198 % of control | T/C (dose: 4.5 mg/kg/injection, schedule: Q01DX009 (ip), vehicle: saline): 109 % of control and 201 % of control | T/C (dose: 6.25 mg/kg/injection, schedule: Q01DX001 (ip), vehicle: saline): 154 % of control | T/C (dose: 6.7 mg/kg/injection, schedule: Q01DX009 (ip), vehicle: saline): 287 % of control | T/C (dose: 7.5 mg/kg/injection, schedule: Q01DX001 (ip), vehicle: saline with Tween-80): 184 % of control | T/C (dose: 8.0 mg/kg/injection, schedule: Q01DX009 (ip), vehicle: saline): 91 % of control | T/C (dose: 10.0 mg/kg/injection, schedule: Q01DX009 (ip), vehicle: saline): 159 % of control | T/C (dose: 12.5 mg/kg/injection, schedule: Q01DX001 (ip), vehicle: saline): 191 % of control | T/C (dose: 13.0 mg/kg/injection, schedule: Q01DX001 (ip), vehicle: saline): 201 % of control | T/C (dose: 15.0 mg/kg/injection, schedule: Q01DX001 (ip), vehicle: saline with Tween-80): 284 % of control | T/C (dose: 20.0 mg/kg/injection, schedule: Q01DX001 (ip), vehicle: saline): 163 % of control and 259 % of control | T/C (dose: 25.0 mg/kg/injection, schedule: Q01DX001 (ip), vehicle: saline): 277 % of control | T/C (dose: 30.0 mg/kg/injection, schedule: Q01DX001 (ip), vehicle: saline with Tween-80): 285 % of control | T/C [7]: 114 % of control and 287 % of control | T/C (dose: 67.0 mg/kg/injection, schedule: Q01DX001 (ip), vehicle: saline): 287 % of control

N#CO
T/C (dose: 18.7 mg/kg/injection, schedule: Q01DX009 (ip), vehicle: saline): 100 % of control | T/C (dose: 37.5 mg/kg/injection, schedule: Q01DX009 (ip), vehicle: saline): 105 % of control | T/C (dose: 75.0 mg/kg/injection, schedule: Q01DX009 (ip), vehicle: saline): 105 % of control
